# According to patent publication US20210170035A1, “METHOD OF TREATING CANCER BY TARGETING MYELOID-DERIVED SUPPRESSOR CELLS” (priority 2016, published 2021):
# Where two headings read alike, the source gives them in different places.
# What was measured:
# TAMs/MDSCs [1] = experiment: IL-10 ELISA assay after in vitro TAMs/MDSCs screening; assay type: cell-based, mouse; conditions: co-culture with drug; absorbance at 492 nm
# Procedure: (§1) 10 million 4T1 cells in 300 μL PBS were injected into the peritoneal cavity. Peritoneal ascites were collected between day 7 and day 10 by peritoneal lavage. […] Cells were counted and ready for flow cytometry staining and in vitro screening.
# (§2) Cells isolated from the peritoneal model were re-suspended in completed RPMI 1640 medium supplemented with 10 ng/mL mouse GM-CSF and seeded into 96 well plates. Different concentrations of screening drugs listed in Table 2 were dissolved in the same medium and were added to each well containing 0.5 millions of cells in 300 μL medium. Wells containing 0.5 million cells in 300 μL medium without addition of drugs were kept as untreated control. Three extra wells were charged with 300 μL medium without cells and drugs to be kept as background control. Cells were then incubated at 37° C. in a humidified 95% air 5% CO2 atmosphere for 24 hours to 48 hours. At the end of incubation, supernatant was collected for IL-10 ELISA and nitric oxide assay. Cells were washed twice with 300 μL PBS, and were then ready for the arginase assay.
# IL-10 production by TAMs/MDSCs after in vitro incubation with different compounds was determined by ELISA assay following the protocol provided with the Mouse IL-10 DuoSet ELISA by R&D Systems. Briefly, a high affinity 96-well plate was coated with 100 μL of diluted capture antibody per well with the working concentration of 4 μg/mL in PBS without carrier protein. The plate was sealed, and incubated overnight at room temperature. Each well was aspirated, and washed three times with 400 μL of wash buffer (0.05% Tween®20 in PBS, pH 7.2-7.4) using a squirt bottle. After the last wash, remaining wash buffer was removed by inverting the plate and blotting it against clean paper towels. The plates were blocked by adding 300 μL of reagent diluent (1% BSA in PBS, pH 7.2-7.4) to each well, and incubated at room temperature for 1 hour. Aspiration/wash was repeated three times in the same manner as previously described. The plates were ready for sample addition. 100 μL of sample supernatant from TAMs/MDSCs in vitro screening were added to each well. The plate was covered with an adhesive strip and incubated for 2 hours at room temperature. The previously mentioned aspiration/wash procedure was repeated three times. 100 μL of the detection antibody with the concentration of 300 ng/mL in reagent diluent was added to each well. The plate was covered with a new adhesive strip and incubated for 2 hours at room temperature. The previously mentioned aspiration/wash procedure was repeated three times. 100 μL of working dilution of streptavidin-HRP (1 to 40 dilution in reagent dilute) was added to each well. The plate was covered and incubated for 20 minutes at room temperature in dark. The previously mentioned aspiration/wash procedure was repeated three times. 200 μL of substrate solution (one bag of silver and golden tablets of OPD in 20 mL of DI water) was added to each well. The plate was incubated for 20 minutes at room temperature in dark. 50 μL of stop solution (3M HCl) was added to each well. The plate was gently tapped to ensure thorough mixing. The IL-10 concentration was proportional to the optical density determined by a microplate reader at 492 nm.
# TAMs/MDSCs [2] = experiment: Arginase assay after in vitro TAMs/MDSCs screening; assay type: cell-based, mouse
# Procedure: as §1
# as §2, with “Different” for “Cells isolated from the peritoneal model were re-suspended in completed RPMI 1640 medium supplemented with 10 ng/mL mouse GM-CSF and seeded into 96 well plates. Different”, “Cells were then incubated at 37° C. in a humidified 95% air 5% CO2 atmosphere for 24 hours to 48 hours.” left out
# Briefly, after in vitro incubation of isolated TAMs/MDSCs with different drugs in 96 well plates, cells were washed twice with 300 μL PBS. […] Subsequently, 50 μL of the lysate solutions were transferred to a new V-shape 96 well plate. 50 μL of arginase activation solution (10 mM MnCl2/50 mM Tris.Cl (pH 7.5)) were added into the cell lysate. The enzyme was activated by heating for 10 min at 56° C. Arginine hydrolysis was conducted by incubating 25 μL of the activated solution with 25 μL of arginase substrate solution (0.5 M L-arginine (pH 9.7)) at 37° C. for 60 min with mild shaking. After cooling to room temperature, 10 μL of the reaction solution was then diluted into 90 μL of PBS. 10 μL of this diluted solution was transferred to a 96 well flat bottom clear plate. 200 μL of urea reagents were added to each well. After incubation in the dark at room temperature for 10 min, the urea concentration was measured at 520 nm by plate reader.
# TAMs/MDSCs [3] = experiment: Nitric oxide assay (Greiss reagent) after in vitro TAMs/MDSCs screening; assay type: cell-based, mouse
# Procedure: as §1
# as §2, with “Different” for “Cells isolated from the peritoneal model were re-suspended in completed RPMI 1640 medium supplemented with 10 ng/mL mouse GM-CSF and seeded into 96 well plates. Different”, “Cells were then incubated at 37° C. in a humidified 95% air 5% CO2 atmosphere for 24 hours to 48 hours.” left out
# Nitric oxide production was measured with Greiss reagent as reported in Je-In Youn, Srinivas Nagaraj, Michelle Collazo, and Dmitry I. Gabrilovich, Subsets of Myeloid-Derived Suppressor Cells in Tumor Bearing Mice′, J Immunol. […] Briefly, after in vitro incubation of TAMs/MDSCs with different drugs, 50 μL of supernatant from each well was transferred into a 96-well plat bottom clear plate. 20 μL of Greiss reagent and 30 μL of DI water were added to each well with 50 μL of supernatant. The reaction solution was kept in the dark at room temperature for 30 min prior to a plate reader measurement. The absorbance at 548 nm is correlated to concentration of nitric oxide produced by TAMs/MDSCs. Results are shown in FIG. 9, FIG. 10, FIG. 11 and FIG. 14.
# human MDSCs = experiment: IL-10 production by in vitro induced human MDSCs; assay type: cell-based; conditions: cultured with drugs for 2 days
# Procedure: Human PBMCs from healthy donor were isolated by density gradient centrifugation following standard procedure: […]
# Blood was dilute blood with PBS (1:2 dilutions). 15 ml of Ficoll was transferred to a 50 ml tube. 35 ml of diluted blood was carefully placed over the Ficoll medium. The tube was centrifuged at 400 g for 30 min, at 24° C. without brake. After the centrifuge stoped, the tube was carefully removed from the centrifuge while not disturbing the layering. The PBMCs were carefully remove from the tube and transferred to a new 50 mL conical tube. Isolated PBMCs were washed with PBS and centrifuged at 300 g for 10 min. The supernatant was decanted. The pellet was washed once again in PBS and centrifuged at 200 g for 15 min. The isolated PBMCs were counted with the hemocytometer.
# Isolated PBMCs were further purified by adhesion in serum free medium for 4 hours at 37° C. at a density of 3×10^6 cell/ml. After removing the suspension cells, adhered PBMCs were cultured in completed RPMI-1640 supplied with 10 ng/ml of IL-6 and GM-CSF for 7 days. Human MDSCs were then sorted by flow as CD33+ cells. Normal human macrophages were differentiated by co-culture PBMCs with completed RPMI-1640 medium for 7 days.
# Human MDSCs were cultured with selected drugs for 2 days. The IL-10 production by MDSCs was measured and plotted vs drug concentrations.
# F4/80+ macrophages = experiment: Intracellular staining of arginase on F4/80+ macrophages from 4T1 solid tumor; assay type: in vivo, balb/c mice; conditions: tumor digestion at end of therapeutic study
# Procedure: Intracellular arginase staining: Cell surface markers for TAMs/MDSCs were labeled following procedures mentioned previously. 0.1 μL fixable viability dye eFluor® 660 was added together with antibody cocktails. After washing with PBS, cells were fixed with 4% formaldehyde in 500 μL of PBS for 15 min at 4° C. Cells were spun down to remove fixing solution. Cells were washed two times with 500 μL washing buffer containing 0.1 M glycine and 0.05% sodium azide. After being spun down a final time, cells were added 1 mL permeabilization solution containing 0.1 M glycine, 0.05% sodium azide and 0.1% triton-100. Permeabilization was performed at room temperature for 5 min. Permeabilized cells were spun down at 1500 rpm for 1 min, and the cells were washed three times with 1 mL blocking buffer containing 0.05 M glycine, 0.05% sodium azide and 0.2% gelatin. Cells were then re-suspended in 1 mL blocking buffer at 4° C. overnight to block non-specific intracellular binding. Cells were then spun down at 1500 rpm for 1 min to remove the supernatant and another 100 μL blocking buffer containing 1 μL FITC-arginase was added. Cells were kept in the dark at 4° C. overnight. After being spun down at 1500 rpm for 1 min, cells were washed with 1 mL blocking buffer and were then ready for flow cytometry analysis (BD Accuri C6™ flow cytometer). […]
# [4] = system: F4/80+CD86+ : F4/80+CD206+ macrophages; experiment: Ratio of M1 to M2 macrophages in 4T1 solid tumor; assay type: in vivo, balb/c mice; conditions: tumor digestion at end of therapeutic study
# Procedure: The ratio of M1 to M2 macrophages (F4/80+CD86+: F4/80+CD206+) was tested in groups of untreated control, FA-TLR7 agonist, FA-PI3K inhibitor, FA-Tubulysin and combination as well as competition groups.
# As described in the previous methods part, after tumor digestion at the end of therapeutic study, isolated cells were stained by F4/80 macrophage marker and M1 (CD86), M2 (CD206) markers. Macrophages in a tumor environment have been considered as a mainly M2 macrophage function, which can support tumor growth and suppress the immune response. On the other hand, M1 macrophages have been considered to be able to eliminate tumor cells and stimulate an anti-cancer immune response. Therefore, to study the M1 to M2 macrophage ratio is very important for targeting FR-β positive TAMs/MDSCs. […] Therefore, it could be concluded that by targeting FR+ TAMs/MDSCs in 4T1 solid tumor, the three classes of FA-conjugated […] are able to convert immunosuppression M2 macrophages environment to an anti-cancer M1 macrophages environment, which would contribute to the slow growth of a tumor.
# MDSCs (CD11b+Gr1+) = experiment: MDSCs population (CD11b+Gr1+) in 4T1 solid tumor; assay type: in vivo, balb/c mice; conditions: tumor digestion at end of therapeutic study
# Procedure: The MDSCs population (CD11b+Gr1+) was tested in groups of untreated control, FA-TLR7 agonist, FA-PI3K inhibitor, FA-Tubulysin and combination as well as competition groups.
# As described in previous methods part, after tumor digestion at the end of therapeutic study, isolated cells were stained by MDSCs markers CD11b+Gr1+, see FIG. 26.
# [5] = co-culture with drug, absorbance at 520 nm
# [6] = co-culture with drug, absorbance at 548 nm
Structure (SMILES),IL-10 production by TAMs/MDSCs in vitro (TAMs/MDSCs [1]),arginase production by TAMs/MDSCs in vitro (TAMs/MDSCs [2]; [5]),nitric oxide production by TAMs/MDSCs in vitro (TAMs/MDSCs [3]; [6]),IL-10 production by human MDSCs (human MDSCs),other results
Nc1cccc2c1CN(C1CCC(=O)NC1=O)C2=O (centres unmarked) [lenalidomide],efficiently decrease IL-10 production,,,,
NC(=O)c1cnc(NCCc2ccc(O)c(Cl)c2)nc1NCc1ccccc1 [AS1517499],efficiently decrease IL-10 production,efficiently decrease arginase production,efficiently decrease nitric oxide production,,
CC1CCN=C(N)S1 (centres unmarked) [AMT],,,efficiently decrease nitric oxide production,,
CC[C@H](C)[C@H](NC(=O)[C@H]1CCCCN1C)C(=O)N(COC(=O)CC(C)C)[C@H](C[C@@H](OC(C)=O)c1nc(C(=O)N[C@@H](Cc2ccc(C)cc2)C[C@H](C)C(=O)O)cs1)C(C)C [tubulysin],efficiently decrease IL-10 production,,,decreasing IL-10 production,arginase production by TAMs/MDSCs in vitro (TAMs/MDSCs [2]): efficiently decrease arginase production; nitric oxide production by TAMs/MDSCs in vitro (TAMs/MDSCs [3]): efficiently decrease nitric oxide production
CO[C@H]1C[C@@H]2CC[C@@H](C)[C@@](O)(O2)C(=O)C(=O)N2CCCC[C@H]2C(=O)O[C@H]([C@H](C)C[C@@H]2CC[C@@H](OCCO)[C@H](OC)C2)CC(=O)[C@H](C)/C=C(\C)[C@@H](O)[C@@H](OC)C(=O)[C@H](C)C[C@H](C)/C=C/C=C/C=C/1C [everolimus],,,efficiently decrease nitric oxide production,,
Cn1c(=O)n(-c2ccc(C(C)(C)C#N)cc2)c2c3cc(-c4cnc5ccccc5c4)ccc3ncc21 [BEZ235],efficiently decrease IL-10 production,efficiently decrease arginase production,efficiently decrease nitric oxide production,decreasing IL-10 production,
CN(Cc1cnc2nc(N)nc(N)c2n1)c1ccc(C(=O)N[C@@H](CCC(=O)O)C(=O)O)cc1 [methotrexate],,,efficiently decrease nitric oxide production,,
Cc1c(CN2CCN(C(=O)C(C)OC(=O)OCCSSCC(NC(=O)CCC(NC(=O)c3ccc(NCc4cnc5nc(N)[nH]c(=O)c5n4)cc3)C(=O)O)C(=O)O)CC2)sc2c(N3CCOCC3)nc(-c3cnc(N)nc3)nc12 (centres unmarked) [FA-PI3K inhibitor],,,,,"arginase+F4/80+ cell population in live cells vs untreated control (F4/80+ macrophages): dramatically decreased; M1 to M2 macrophages ratio vs untreated control [4]: dramatically increased; MDSCs population (CD11b+Gr1+) vs untreated control (MDSCs (CD11b+Gr1+)): no difference; anti-cancer effect on co-injection of 200 times more competitor (FA-PEG-NH2) (4T1 solid tumor; competition group, same schedule): can be competed; tumor growth, therapeutic study (4T1 solid tumor; i.v. 5 days per week for 2 weeks from day 6, 10 nmol FA-TLR7 agonist, 10 nmol FA-PI3K inhibitor, 30 nmol FA-tubulysin): tumor growth was slowed down"
Cc1ccc(-n2nc(C(C)(C)C)cc2NC(=O)Nc2ccc(OCCN3CCOCC3)c3ccccc23)cc1 [BIRB796],efficiently decrease IL-10 production,efficiently decrease arginase production,efficiently decrease nitric oxide production,,
CC[C@]1(O)C[C@@H]2CN(CCc3c([nH]c4ccccc34)[C@@](C(=O)OC)(c3cc4c(cc3OC)N(C)[C@H]3[C@@](O)(C(=O)OC)[C@H](OC(C)=O)[C@]5(CC)C=CCN6CC[C@]43[C@@H]65)C2)C1 [vinblastine],,,,decreasing IL-10 production,
Cc1c(CN2CCN(C(=O)[C@H](C)O)CC2)sc2c(N3CCOCC3)nc(-c3cnc(N)nc3)nc12 [GDC-0980],best candidate that can efficiently decrease IL-10,best candidate that can efficiently decrease arginase,best candidate that can efficiently decrease nitric oxide,decreasing IL-10 production,
CCCCNc1nc(N)c2[nH]c(=O)n(Cc3ccc(C(=O)NCC(=O)NCCCNCCCCNCCCN)cc3)c2n1 [CL307],,efficiently decrease arginase production,,,
